# Source: US9910050B2, “Mutant smoothened and methods of using the same” (Curis, Inc., priority 2009, dated 2018)
# Entries after “also recorded” stand apart in the source; their conditions may differ.
# Columns and labels:
# SMO-WT = biological target: T1, SMO-WT (Homo sapiens, UniProt Q99835); experiment: Gli-luciferase reporter assay in C3H10T½ cells transfected with SMO-WT; format: cell-based
# T1 construct: expressed in transfected cells; host or cells: C3H10T½ cells (reporter assay)
# SMO-D473H = biological target: T2, SMO-D473H (Homo sapiens, UniProt Q99835, D473H); experiment: Gli-luciferase reporter assay in C3H10T½ cells transfected with SMO-D473H; format: cell-based; conditions: for activity against SMO-D473H, inhibition of Gli-luciferase activity: screen at 1 μM compound
# T2 construct: expressed in transfected cells; host or cells: C3H10T½ cells (reporter assay)
# Procedure: For the PTCH1 inhibition experiments, cells were transfected with an additional 200 ng of DNA containing varying ratios of PTCH1 to eGFP expression constructs. For the NF-κB and SV40 reporter assays, Gli-BS was replaced with either pGL4.32 or pGL3-Promoter. Six hours later, cells were collected by trypsin treatment and each well was redistributed over four wells of a 12-well plate. The FBS content of the culture medium was reduced to 0.5% the following morning to induce formation of primary cilia, and small molecule Hh inhibitors were added at indicated concentrations. […] Values were divided by Renilla luciferase activities to normalize for transfection efficiency and are shown as the mean of three separate experiments±1 standard deviation.
# [1] = Mouse pharmacokinetic study; format: in vivo; conditions: for pharmacokinetic properties in mice: oral
# Procedure: Mouse pharmacokinetic studies. […] Briefly, 24 female CD-1 mice weighing 25 to 33 g at study initiation were given a single oral 100 mg kg−1 dose of either compound 4 or 5 as a suspension in 0.5% methylcellulose with 0.2% Tween-80 (MCT). Blood samples (n=3 mice per time point) were collected in tubes containing EDTA as an an anticoagulant by terminal cardiac puncture under isoflurane at the following time points: 5, 15 and 30 min; and 1, 3, 6, 9 and 24 h post-dose. Blood samples were centrifuged to collect plasma, which was stored at −80° C. until drug concentrations were quantified by LC/MS/MS.
# [2] = system: SG274 allografts (Smo-D477G); experiment: Tumor growth of subcutaneous SG274 MB allografts; format: in vivo, mouse; conditions: compound 5 100 mg kg−1 once daily, oral
# Source text: (§1) Drug treatment of animals with MB allografts. Tumor-hearing animals were generated via serial subcutaneous propagation of murine Ptch+/−; p53−/− MB tumor lines (Wetmore C. et al. (2001) Cancer Res. 61:513-516). Subcutaneous tumors 1500-2000 mm3 were excised from donor mice under aseptic conditions, minced in High Glucose DMEM by repeated slicing and chopping with two #10 scalpels and passed through a cell dissociation sieve (Sigma, CD1-1KT). The resulting single cell suspension was washed twice in High Glucose DMEM and filtered through a 70 μm nylon cell strainer (BD Falcon) before counting in a Vi-CELL cell viability analyzer (Beckman Coulter). Approximately 2.5-4×10^6 live cells in a 100 μl volume were injected subcutaneously into the right lateral thorax of 7 to 10-week-old female CD-1 nude mice (CRL). Tumor dimensions were measured with Ultra Cal1 IV calipers (Fred V. Fowler Company Inc., Newton, Mass.) and tumor volume was calculated using the formula v=0.5×a×b2, where a and b are the […] perpendicular tumor diameters, respectively. When tumors reached 125-350 mm^3 in volume, animals were separated into treatment groups with similarly sized tumors and drug administration was initiated. […]
# [3] = system: Gli1 mRNA in SG274 tumors; experiment: Gli1 mRNA levels by qRT-PCR in SG274 tumors; format: in vivo, mouse; conditions: compound 5 100 mg kg−1 once daily, collected 6 hours after last treatment
# endogenous SMO = biological target: T3, endogenous SMO (Mus musculus, UniProt P56726); experiment: Inhibition of endogenous SMO following stimulation by Hh ligand; format: cell-based; conditions: data not shown
# T3 construct: endogenous in cells
# [4] = system: Smo localization to the primary cilium in S12 cells; experiment: Smo immunostaining, ciliary localization in S12 cells; conditions: 16 h; for effect on Smo localization compared with GDC-0449: absence or presence of Shh, 1 μM; for ciliary accumulation of Smo in the absence of Hh stimulation: no Shh
# human hepatocytes = experiment: Metabolism by human hepatocytes; format: in vitro ADME; conditions: unpublished observation
# [5] = system: Smo localization to the primary cilium; conditions: literature reports; cited from earlier work
# [6] = system: control and GDC-0449-resistant MB allografts; experiment: Tumor growth of control and GDC-0449-resistant MB allografts, PI3K inhibitor study; format: in vivo, mouse; conditions: GDC-0941 150 mg kg−1 once daily, oral, SG102, SG152, SG274
# Source text: as §1
# [7] = system: pAKT and pS6 (PI3K pathway); experiment: Immunoblot of activated AKT and S6 in MB allograft tumors; format: in vivo, mouse; conditions: 6-hour treatment with GDC-0941
# Procedure: Immunoblotting. Frozen tumor samples were lysed in M-PER Mammalian Protein Extraction Reagent (Pierce) containing protease and phosphatase inhibitors. Lysates were separated on 4-12% Bis-Tris gels and proteins were transferred onto PVDF membranes with an iBlot (Invitrogen). Blots were blocked and incubated overnight at 4° C. with 5% milk containing one of the following primary antibodies; anti-cyclin D1 (Cell Signaling, #2922), anti-phospho(Ser473)-AKT (Cell Signaling, #4060), anti-total AKT (Cell Signaling #9272), anti-Gli2 (Cho A. et al. (2008) Dev. Biol. 321:27-39), or anti-actin (Santa Cruz Biotechnology, sc-47778), followed by a 1 h incubation at RT with appropriate HRP-conjugated secondary antibodies. Antigen-antibody interactions were visualized with SuperSignal West Dura Extended Duration Substrate (Pierce).
# [8] = 5 μM for cyclopamine, 1 μM for the others
# T2 sequence (Q99835 28-787 D473H): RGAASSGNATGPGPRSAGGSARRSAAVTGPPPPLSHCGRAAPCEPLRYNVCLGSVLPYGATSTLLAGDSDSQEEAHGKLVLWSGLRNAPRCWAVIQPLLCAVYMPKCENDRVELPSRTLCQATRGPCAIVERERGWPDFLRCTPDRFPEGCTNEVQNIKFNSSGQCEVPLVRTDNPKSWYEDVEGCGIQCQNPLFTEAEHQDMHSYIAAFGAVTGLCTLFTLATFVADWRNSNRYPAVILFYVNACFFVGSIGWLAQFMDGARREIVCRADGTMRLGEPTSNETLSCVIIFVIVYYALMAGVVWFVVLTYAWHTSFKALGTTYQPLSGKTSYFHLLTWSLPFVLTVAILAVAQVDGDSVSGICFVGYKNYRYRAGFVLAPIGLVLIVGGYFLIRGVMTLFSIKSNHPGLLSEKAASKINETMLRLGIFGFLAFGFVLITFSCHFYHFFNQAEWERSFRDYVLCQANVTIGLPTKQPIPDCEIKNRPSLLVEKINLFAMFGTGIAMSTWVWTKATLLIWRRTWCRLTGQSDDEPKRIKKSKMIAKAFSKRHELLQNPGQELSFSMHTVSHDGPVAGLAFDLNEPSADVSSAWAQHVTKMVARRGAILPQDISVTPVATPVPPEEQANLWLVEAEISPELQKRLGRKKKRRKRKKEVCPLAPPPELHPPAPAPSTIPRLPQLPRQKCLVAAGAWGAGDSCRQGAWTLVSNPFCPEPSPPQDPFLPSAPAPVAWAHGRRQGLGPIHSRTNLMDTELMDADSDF
# T1 sequence (Q99835 28-787): as the sequence (Q99835 28-787 D473H) above, with H446D counted along it
# T3 sequence (P56726 33-793): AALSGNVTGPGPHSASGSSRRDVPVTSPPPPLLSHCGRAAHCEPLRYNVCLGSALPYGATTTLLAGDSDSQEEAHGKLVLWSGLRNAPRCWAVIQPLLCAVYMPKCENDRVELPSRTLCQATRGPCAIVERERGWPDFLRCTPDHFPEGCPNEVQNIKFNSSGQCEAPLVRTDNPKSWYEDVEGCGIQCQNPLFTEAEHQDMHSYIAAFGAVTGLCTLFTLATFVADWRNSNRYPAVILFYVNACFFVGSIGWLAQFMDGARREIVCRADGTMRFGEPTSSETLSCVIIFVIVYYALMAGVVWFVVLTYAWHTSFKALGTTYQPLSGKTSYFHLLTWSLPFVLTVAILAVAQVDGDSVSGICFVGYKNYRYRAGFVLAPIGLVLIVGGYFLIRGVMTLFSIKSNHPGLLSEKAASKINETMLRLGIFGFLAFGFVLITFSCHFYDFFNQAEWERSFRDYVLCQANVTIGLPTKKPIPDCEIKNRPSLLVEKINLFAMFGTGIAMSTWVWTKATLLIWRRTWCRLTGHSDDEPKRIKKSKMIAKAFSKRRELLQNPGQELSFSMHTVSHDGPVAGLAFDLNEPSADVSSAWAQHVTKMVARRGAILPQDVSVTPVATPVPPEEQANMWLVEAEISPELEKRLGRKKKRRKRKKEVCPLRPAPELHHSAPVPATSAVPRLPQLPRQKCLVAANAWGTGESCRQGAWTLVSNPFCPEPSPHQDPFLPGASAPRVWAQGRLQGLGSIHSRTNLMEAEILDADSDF
compound,measurement,setting,value
C[C@@H]1CN(c2ccc(C(=O)Nc3ccc(Cl)c(NC(=O)c4cccc(Cl)c4)c3)cn2)C[C@H](C)N1 [Compound 5],"activity against wild type SMO, Gli-luciferase reporter",SMO-WT; SMO-WT overexpression in C3H10T½ cells,less potent against SMO-WT than GDC-0449
same,IC50,"SMO-WT; SMO-WT transfected C3H10T½ cells, read-out: IC50, inhibition of GLI-luciferase reporter activity",300 nM
same,IC50,"SMO-D473H; SMO-D473H transfected C3H10T½ cells, read-out: IC50, inhibition of Gli-luciferase reporter activity",700 nM
same,"inhibition of SMO-D473H, Gli-luciferase reporter dose response",SMO-D473H; dose response,can inhibit the drug-resistant mutant
same,"activity against SMO-D473H, inhibition of Gli-luciferase activity",SMO-D473H,improved potencies
same,half-life,"[1]; female, CD-1, mouse, mice, single oral 100 mg kg−1 dose, plasma, read-out: terminal half-life (t1/2) (converted)",~22 h
same,pharmacokinetic properties in mice,[1],good pharmacokinetic properties in mice
same,tumor growth of SG274 allografts,[2],not only stopped growing but even started to shrink
same,Gli1 mRNA levels in SG274 tumors,[3],downregulation in Gli1 mRNA levels
same,less compound sufficient to inhibit endogenous SMO than in SMO overexpression assay,endogenous SMO,approximately 10 fold
same,effect on Smo localization compared with GDC-0449,[4],very similar effects on Smo localization
CCOc1cc(C(=O)Nc2ccc(Cl)c(-c3nc4ccccc4[nH]3)c2)cc(OCC)c1OCC [HhAntag],"activity against SMO-D473H, inhibition of Gli-luciferase activity",SMO-D473H,essentially equipment against all SMO alleles
same,metabolism by human hepatocytes,human hepatocytes,rapidly metabolized by human hepatocytes
same,effect on Smo localization compared with GDC-0449,[4],very similar effects on Smo localization
KAAD-cyclopamine,ciliary accumulation of Smo in the absence of Hh stimulation,[4]; [8],partially induced ciliary translation
Cc1nn(-c2ccccc2)c(C)c1/C=N/N1CCN(Cc2ccccc2)CC1 [SANT-1],"activity against SMO-D473H, inhibition of Gli-luciferase activity",SMO-D473H,partially resistant; also recorded: neither cyclopamine nor SANT-1 can fully inhibit Smo-D473H
same,Shh and agonist-induced translocation of Smo to the cilium,[5],prevented Shh and agonist-induced translocation of Smo
same,Hh-induced Smo translocation to the primary cilium,"[4]; 200 ng/ml octyl-Shh, 5 μM for cyclopamine, 1 μM for the others",prevented Hh-induced Smo translocation
same,ciliary accumulation of Smo in the absence of Hh stimulation,[4]; [8],did not promote ciliary enrichment
CS(=O)(=O)c1ccc(C(=O)Nc2ccc(Cl)c(NC(=O)c3ccccc3)c2)c(Cl)c1 [Compound 3],"activity against SMO-D473H, inhibition of Gli-luciferase activity",SMO-D473H,measurable activity
CC1=C2C[C@H]3[C@@H](CC=C4C[C@@H](O)CC[C@@]43C)[C@@H]2CC[C@]12O[C@@H]1C[C@H](C)CN[C@H]1[C@H]2C [cyclopamine],"activity against SMO-D473H, inhibition of Gli-luciferase activity",SMO-D473H,partially resistant; also recorded: neither cyclopamine nor SANT-1 can fully inhibit Smo-D473H
same,ciliary accumulation of Smo in the absence of Hh stimulation,[4]; [8],robust translocation of Smo to the primary odium
CNC1CCC(N(Cc2cccc(-c3ccncc3)c2)C(=O)c2sc3ccccc3c2Cl)CC1 (stereo not drawn) [SAG],ciliary accumulation of Smo in the absence of Hh stimulation,[4]; [8],robust translocation of Smo to the primary odium
O=C(Nc1ccc(Cl)c(NC(=O)c2cccc(Cl)c2)c1)c1ccc(N2CCC(O)CC2)nc1 [Compound 4],"activity against SMO-D473H, inhibition of Gli-luciferase activity",SMO-D473H,improved potencies
same,pharmacokinetic properties in mice,[1],cleared much more rapidly from the blood stream than compound 5
CS(=O)(=O)N1CCN(Cc2cc3nc(-c4cccc5[nH]ncc45)nc(N4CCOCC4)c3s2)CC1 [GDC-0941],tumor growth of control and resistant MB allograft models,[6],greatly reduced tumor growth
same,pAKT and pS6 levels in tumors,[7],decreased pAKT and pS6 levels
